Measured values taken from US20180230160A1, “2-AMINO-7A-PHENYL-3,4,4A,5,7,7A-HEXAHYDROFURO[3,4-B]PYRIDINES AS BACE1 INHIBITORS” (H. Lundbeck A/S, priority 2015, published 2018).
Read-outs that look alike come from different tables or passages of the source.

Columns and labels:
[1] = Compound exposure in rat brain and plasma after oral dosing (DMPK analysis); format: in vivo; details: male, Sprague Dawley, 3 hours post dose; for concentration at 3 h: read-out: Exp (exposure); for Kp at 3 h: brain/plasma, read-out: Brain/Plasma ratio
Procedure: (§1) Young adult Male Sprague Dawley rats of approximately 250 g weight were purchased from Charles River and received 0-30 mg/kg of vehicle (10% HP betaCD+1M MeSO4, pH 2.5) or test compounds (dissolved in vehicle) only by oral gavage (p.o). The compounds are dosed at a volume of 5 ml/kg. Cohorts of 5-10 animals were established for each treatment condition.
(§2) At T=180 minutes after initial dosing the animals were stunned and decapitated with a guillotine. Trunk-blood was sampled in EDTA coated tubes after decapitation of the animal. The blood was centrifuged at 2200G at 4° C. for 15 minutes and the plasma was collected and frozen at −80° C. The blood was aliquoted for Aβ ELISA and DMPK analysis. Immediately following sacrifice, the brain was extracted and split into 2 halves. The right hemibrains were snap frozen on dry ice and stored at −80° C. The left half was dissected; with the front forebrain taken for Aβ ELISA and the remainder used for DMPK analysis. These samples were also snap frozen on dry ice and stored at −80° C. until use for analysis.
The results of the administration of representative Compounds of Examples 1, 2, 5, […], of brain and plasma samples collected at 3 hours post dose and then following exposures, as described above, are tabulated below.

[2] = target: T1, human BACE1 (Homo sapiens, UniProt P56817); assay: BACE1 binding assay (SPA-based radioligand binding); parameters: biotin (biotinylated form); made in house; host or cells: Freestyle HEK293 cells; details: pH 4.5, 10 nM radioligand, Ki=IC50/(1+L/Kd)
Procedure: The binding assay was performed as SPA-based assay using a biotinylated form of human BACE1 recombinantly expressed and subsequently purified from Freestyle HEK293 cells. The binding assay was run in a 50 mM sodium acetate buffer, pH 4.5 containing 50 mM NaCl and 0.03% Tween-20 in white clear bottom 384 plates (Corning #3653). 10 nM (final concentration) radioligand ([^3H]—N-((1S,2R)-1-benzyl-3-cyclopropylamino-2-hydroxy-propyl)-5-(methanesulfonyl-methyl-amino)-N—((R)-1-phenyl-ethyl)-isophthalamide) (TRQ11569 purchased from GE Healthcare) was mixed with test compound at a given concentration, 6 nM (final concentration) human BACE1 and 25 μg Streptavidin coated PVT core SPA beads (RPNQ0007, GE Healthcare Life Sciences) in a total volume of 40 μl. Several concentrations of each test compound were tested in the assay for […] determination. The plates were incubated for one hour at room temperature and counted in a Wallac Trilux counter. Total and non-specific binding were determined using buffer and 1 μM (final concentration) of the high affinity BACE1 reference inhibitor (S)-6-[3-chloro-5-(5-prop-1-ynyl-pyridin-3-yl)-thiophen-2-yl]-2-imino-3,6-dimethyl-tetrahydro-pyrimidin-4-one, respectively. For each test compound, a 1050 value (the concentration mediating 50% inhibition of the specific binding of the radioligand) was determined from concentration-response curve and used to calculate the Ki from the equation Ki=IC50/(1+L/Kd), where L and Kd are the final concentration of the radioligand used in the assay and the dissociation constant of the radioligand, respectively. The Kd of the radioligand was determined from saturation binding experiments.

[3] = tested on: Aβ40 peptide; assay: Assessment of Aβ peptide levels in rat brain and plasma following BACE1 inhibition (Aβ40 ELISA); format: in vivo; details: 3 hours post dose, vs vehicle
Procedure: Assessment of Aβ Peptide Levels in Rat Brain and Plasma Following BACE1 Inhibition. Animals.
as §1, §2
The cortex samples were thawed slightly on wet ice before they were homogenized with a small volume dispersing instrument (T10 basic ULTRA-TURRAX®) which was set at speed 5 for approximately 5-7 sec. The tissue was processed in a 10 times volume of the weight, for example 100 mg of tissue was homogenized in 1000 μL of Homogenization buffer. Homogenization buffer: 50 ml Milli Q water+50 nM NaCl+0.2% Diethylamin (DEA)+1 tablet of Complete Protease inhibitor cocktail+1 nM 4-(2-aminoethyl) benzenesulfonyl fluoride hydrochloride irreversible serine protease inhibitor (AEBSF).
After homogenization 450 μL aliquots of the samples are collected into a 1.5 ml Eppendorf tube and placed on wet ice, 0.5% NP-40 (50 ul) was added to all samples and then they were incubated on ice for 30 min. After which all samples were sonicated using an Ultrasonic homogenizer with 20 kHz homogeneous sound (SONOPLUS HD2070, Bandelin Electronic) 10 pulse set at 12-13% power to extract all the Aβ species. The samples were then centrifuged (Ole Dich 157 MPRF Micro centrifuge) at 20000G for 20 minutes at 4° C. After centrifugation 285 μL of the supernatant was pipetted into 600 μL microtubes tubes and neutralized with 15 μL of 1M Tris-HCL buffer.
WAKO 294-62501 Human/Rat Abeta amyloid (40) kit was used for all ELISA analyses. 30 μL plasma samples or 30 μL of the cortex supernatants generated as described above were placed in 600 μL microtubes tubes on wet ice. To this 30 μL of 8M urea (AppliChem A1049, 9025) was added to generate a 2-fold dilution. Both plasma and cortex supernatants were incubated on ice for 30 min. Standard rows were prepared from the standard peptide stock provided in the kit and standard diluent containing 1.6M urea (200 μL 8M urea+800 μL of standard diluent) and 0.8M urea (400 μL 8M Urea+3600 μL Standard diluent). A serial 2-fold dilution of Aβ40 from 100 pmol/ml to 0 pmol/L was prepared for the assay.
After incubation with urea, all samples were further diluted by addition of 5 times standard diluent from the Kit. This was done by adding 240 μL Standard Diluent to 60 μL sample/urea mixture, which was then mixed well. 100 μL of each diluted sample was pipetted into designated wells of the ELISA plate in duplicates. The plate was then covered and incubated overnight at 4° C. The following day, the ELISA kit was brought to room temperature before use. The incubated plate was washed 5 times with the 20× washing solution diluted in Milli Q water. 100 μL HRP-conjugate was applied to each well, and the plate was covered and incubates at 4° C. for 1 hr. The wash was repeated again for 5 times. 100 μL 3,3′,5,5′-Tetramethylbenzidine (TMB) solution was applied to each well and the plate was covered and incubated in the dark at room temperature for 30 minutes. […]

[4] = tested on: P-gp (MDR1); assay: MDCK-MDR1 assay (permeability, efflux ratio); format: in vitro ADME; details: dog, Papp BA/Papp AB, 60-minute incubation
Procedure: The permeability of the test compounds was assessed in MDCK-MDR1 cells that were cultured to confluency (4-6 days) in a 96 transwell plate. Test compounds were diluted with the transport buffer (HBSS+1% BSA) to a concentration of 0.5 μM and applied to the apical or basolateral side of the cell monolayer. Permeation of the test compounds from A to B direction or B to A direction was determined in triplicate over a 60-minute incubation time at 37° C. and 5% CO2 with a relative humidity of 95%. Test compounds were quantified by LC-MS/MS analysis based on the peaks area ratios of analyte/IS in both the receiver and donor wells of the transwell plate. The apparent permeability coefficient Papp (cm/s) was calculated using the equation: […]
Where dCr/dt is the cumulative concentration of compound in the receiver chamber as a function of time (μM/s); Vr is the solution volume in the receiver chamber (0.05 mL on the apical side; 0.25 mL on the basolateral side); A is the surface area for the transport, i.e. 0.0804 cm^2 for the area of the monolayer; CO is the initial concentration in the donor chamber (μM).

[5] = target: T1, human BACE1; assay: BACE1 efficacy assay (FRET-based, commercial BACE1 kit); format: biochemical; parameters: purchased Life Technologies P2985; details: 10 μM test compound
Procedure: The efficacy assay was performed as a FRET-based assay using a commercially available BACE1 kit (Life Technologies, P2985). 2 μl test compound at 10 μM (final concentration) and 15 μl BACE1 enzyme from the kit (final concentration 3 nM) were preincubated for 15 minutes at room temperature before addition of 15 μl of substrate from the kit (250 nM final concentration) and incubated for additional 90 minutes at room temperature. The assay plate was subsequently read in a Pherastar (Ex540/Em590). The enzyme activity observed in presence of test compound were normalized to the enzyme activity observed in presence of buffer and 10 μM (final concentration) of the high affinity BACE1 reference inhibitor (S)-6-[3-Chloro-5-(5-prop-1-ynyl-pyridin-3-yl)-thiophen-2-yl]-2-imino-3,6-dimethyl-tetrahydropyrimidin-4-one, respectively. The efficacy of the test compounds was evaluated at 10 μM (final concentration) and defined as the percent inhibition of the enzyme activity using the equation % inhibition=100%−normalized enzyme activity in percent.

T1 sequence (P56817 46-501): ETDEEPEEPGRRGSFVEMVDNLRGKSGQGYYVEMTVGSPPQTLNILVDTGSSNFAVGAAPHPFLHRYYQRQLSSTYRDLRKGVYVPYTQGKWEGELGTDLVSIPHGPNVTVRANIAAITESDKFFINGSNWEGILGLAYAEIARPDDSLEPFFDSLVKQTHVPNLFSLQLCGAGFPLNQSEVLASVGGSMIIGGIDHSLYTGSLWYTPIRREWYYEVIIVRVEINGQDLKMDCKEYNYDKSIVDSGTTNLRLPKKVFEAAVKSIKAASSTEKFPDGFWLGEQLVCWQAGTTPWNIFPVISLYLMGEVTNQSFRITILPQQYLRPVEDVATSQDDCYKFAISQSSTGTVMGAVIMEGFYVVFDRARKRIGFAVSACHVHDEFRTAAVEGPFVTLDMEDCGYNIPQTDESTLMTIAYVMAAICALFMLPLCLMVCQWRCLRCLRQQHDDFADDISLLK

Row | SMILES | concentration at 3 h ([1]; Brain, 10 mg/kg p.o.) | concentration at 3 h ([1]; Brain, 30 mg/kg p.o.) | concentration at 3 h ([1]; Plasma, 10 mg/kg p.o.) | concentration at 3 h ([1]; Plasma, 30 mg/kg p.o.) | Kp at 3 h ([1]; 10 mg/kg p.o.) | Kp at 3 h ([1]; 30 mg/kg p.o.) | Ki [2] | efflux ratio at 60 min, 0.5 μM [4] | inhibition at 10 µM [5] | Aβ40 reduction ([3]; Brain, 10 mg/kg p.o.) | Aβ40 reduction ([3]; Brain, 30 mg/kg p.o.) | Aβ40 reduction ([3]; Plasma, 10 mg/kg p.o.) | Aβ40 reduction ([3]; Plasma, 30 mg/kg p.o.)
1 | COc1ccc(C(=O)Nc2cc(F)c(F)c([C@]34COC[C@H]3C[C@](F)(CF)C(N)=N4)c2)nc1 [Example 17, N-[3-[(3R,4aS,7aS)-2-amino-3-fluoro-3-(fluoromethyl)-4,4a,5,7-tetrahydrofuro[3,4-b]pyridin-7a-yl]-4,5-difluoro-phenyl]-5-methoxy-pyridine-2-carboxamide] | – | – | – | – | – | – | 99 nM | 1.25 | 105% | – | – | – | –
2 | COc1cnc(C(=O)Nc2cc(F)c(F)c([C@]34COC[C@H]3C[C@](F)(CF)C(N)=N4)c2)cn1 [Example 18, N-[3-[(3R,4aS,7aS)-2-amino-3-fluoro-3-(fluoromethyl)-4,4a,5,7-tetrahydrofuro[3,4-b]pyridin-7a-yl]-4,5-difluoro-phenyl]-5-methoxy-pyrazine-2-carboxamide] | – | – | – | – | – | – | 110 nM | 1.31 | 105% | – | – | – | –
3 | NC1=N[C@@]2(c3cc(NC(=O)c4ccc(F)cn4)ccc3F)COC[C@H]2C[C@@]1(F)CF [Example 20, N-(3-((3S,4aS,7aS)-2-amino-3-fluoro-3-(fluoromethyl)-3,4,4a,5-tetrahydrofuro[3,4-b]pyridin-7a-yl)-4-fluorophenyl)-5-fluoropicolinamide] | – | – | – | – | – | – | 140 nM | 0.71 | 103% | – | – | – | –

The next molecules have a lower Ki [2] than those just listed; values first:

Row | concentration at 3 h ([1]; Brain, 10 mg/kg p.o.) | concentration at 3 h ([1]; Brain, 30 mg/kg p.o.) | concentration at 3 h ([1]; Plasma, 10 mg/kg p.o.) | concentration at 3 h ([1]; Plasma, 30 mg/kg p.o.) | Kp at 3 h ([1]; 10 mg/kg p.o.) | Kp at 3 h ([1]; 30 mg/kg p.o.) | Ki [2] | efflux ratio at 60 min, 0.5 μM [4] | inhibition at 10 µM [5] | SMILES | Aβ40 reduction ([3]; Brain, 10 mg/kg p.o.) | Aβ40 reduction ([3]; Brain, 30 mg/kg p.o.) | Aβ40 reduction ([3]; Plasma, 10 mg/kg p.o.) | Aβ40 reduction ([3]; Plasma, 30 mg/kg p.o.)
4 | – | – | – | – | – | – | 88 nM | 0.97 | 110% | NC1=N[C@@]2(c3cc(NC(=O)c4ccc(F)cn4)ccc3F)COC[C@H]2C[C@]1(F)CF [Example 16, N-(3-((3R,4aS,7aS)-2-amino-3-fluoro-3-(fluoromethyl)-3,4,4a,5-tetrahydrofuro[3,4-b]pyridin-7a-yl)-4-fluorophenyl)-5-fluoropicolinamide] | – | – | – | –
5 | – | – | – | – | – | – | 65 nM | 1.19 | 111% | COc1ccc(C(=O)Nc2ccc(F)c([C@]34COC[C@H]3C[C@](F)(CF)C(N)=N4)c2)nc1 [Example 15, N-(3-((3R,4aS,7aS)-2-amino-3-fluoro-3-(fluoromethyl)-3,4,4a,5-tetrahydrofuro[3,4-b]pyridin-7a-yl)-4-fluorophenyl)-5-methoxypicolinamide] | – | – | – | –
6 | 37 ng/g | 136 ng/g | 69 ng/g | 244 ng/g | 0.54 | 0.56 | 31 nM | 1.27 | – | C[C@]1(F)C[C@]2(F)COC[C@]2(c2cc(NC(=O)c3ccc(F)cn3)ccc2F)N=C1N [Example 2, N-(3-((3S,4aR,7aS)-2-amino-3,4a-difluoro-3-methyl-3,4,4a,5,7,7a-hexahydrofuro[3,4-b]pyridin-7a-yl)-4-fluorophenyl)-5-fluoropicolinamide] | 25% | 24% | 48% | 47%
7 | – | – | – | – | – | – | 24 nM | 1.67 | 103% | C[C@@]1(F)C[C@]2(F)COC[C@]2(c2cc(NC(=O)c3ccc(F)cn3)ccc2F)N=C1N [Example 12, N-(3-((3R,4aR,7aS)-2-amino-3,4a-difluoro-3-methyl-3,4,4a,5,7,7a-hexahydrofuro[3,4-b]pyridin-7a-yl)-4-fluorophenyl)-5-fluoropicolinamide] | – | – | – | –
8 | 204 ng/g | 695 ng/g | 174 ng/g | 598 ng/g | 1.17 | 1.16 | 17 nM | 0.91 | – | COc1cnc(C(=O)Nc2ccc(F)c([C@]34COC[C@@]3(F)C[C@](C)(F)C(N)=N4)c2)cn1 [Example 5, N-(3-((3S,4aR,7aS)-2-amino-3,4a-difluoro-3-methyl-3,4,4a,5,7,7a-hexahydrofuro[3,4-b]pyridin-7a-yl)-4-fluorophenyl)-5-methoxypyrazine-2-carboxamide] | 40% | 47% | 41% | 45%
